Each block holds one compound with its values, some of them ahead of it. The source made the active and inactive calls.
What was measured:
[1] = target: T1, Sentrin-specific protease 8 (Homo sapiens, UniProt Q96LD8); assay: inhibition of human SENP8 cleavage activity – biochemical, luminescence, SAR follow-up (AID 504501); type: functional
T1 sequence (Q96LD8 whole entry): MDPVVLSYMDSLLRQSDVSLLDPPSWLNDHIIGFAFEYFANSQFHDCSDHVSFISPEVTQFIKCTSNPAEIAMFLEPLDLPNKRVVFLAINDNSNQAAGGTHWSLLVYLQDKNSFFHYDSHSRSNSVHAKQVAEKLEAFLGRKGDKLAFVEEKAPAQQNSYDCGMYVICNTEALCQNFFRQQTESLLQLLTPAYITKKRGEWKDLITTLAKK

Caspase-3 [2] = target: T2, Caspase-3 (Homo sapiens, UniProt P42574); assay: inhibition of recombinant caspase-3 activity – biochemical, luminescence, set 2, selectivity assay for SENP protease inhibitor project, SAR follow-up (AID 588599); type: functional
T2 sequence (P42574 whole entry): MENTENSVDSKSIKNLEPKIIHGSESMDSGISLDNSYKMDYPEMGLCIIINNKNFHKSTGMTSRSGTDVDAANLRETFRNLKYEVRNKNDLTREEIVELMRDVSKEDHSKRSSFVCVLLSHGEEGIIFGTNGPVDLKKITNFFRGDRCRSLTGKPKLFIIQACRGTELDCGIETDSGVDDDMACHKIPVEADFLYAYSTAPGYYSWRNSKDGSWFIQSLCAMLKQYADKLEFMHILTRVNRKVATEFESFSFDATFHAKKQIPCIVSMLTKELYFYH

[3] = target: T1, Sentrin-specific protease 8; assay: inhibition of sentrin protease 8 – biochemical, luminescence, set 2, SAR follow-up (AID 588601); type: functional
Caspase-3 [4] = target: T2, Caspase-3; assay: SAR Analysis of small molecule inhibitors of Sentrin-specific proteases (SENPs) using a Caspase-3 Selectivity assay. [Related pubchem assays (depositor defined):AID2540, AID2599, AID434973, AID489001]; type: functional
[5] = target: T3, Sentrin-specific protease 7 (Homo sapiens, UniProt Q9BQF6); assay: inhibition of human SENP7 cleavage activity – biochemical, luminescence, set 2, SAR follow-up (AID 588600); type: functional
T3 sequence (Q9BQF6 whole entry): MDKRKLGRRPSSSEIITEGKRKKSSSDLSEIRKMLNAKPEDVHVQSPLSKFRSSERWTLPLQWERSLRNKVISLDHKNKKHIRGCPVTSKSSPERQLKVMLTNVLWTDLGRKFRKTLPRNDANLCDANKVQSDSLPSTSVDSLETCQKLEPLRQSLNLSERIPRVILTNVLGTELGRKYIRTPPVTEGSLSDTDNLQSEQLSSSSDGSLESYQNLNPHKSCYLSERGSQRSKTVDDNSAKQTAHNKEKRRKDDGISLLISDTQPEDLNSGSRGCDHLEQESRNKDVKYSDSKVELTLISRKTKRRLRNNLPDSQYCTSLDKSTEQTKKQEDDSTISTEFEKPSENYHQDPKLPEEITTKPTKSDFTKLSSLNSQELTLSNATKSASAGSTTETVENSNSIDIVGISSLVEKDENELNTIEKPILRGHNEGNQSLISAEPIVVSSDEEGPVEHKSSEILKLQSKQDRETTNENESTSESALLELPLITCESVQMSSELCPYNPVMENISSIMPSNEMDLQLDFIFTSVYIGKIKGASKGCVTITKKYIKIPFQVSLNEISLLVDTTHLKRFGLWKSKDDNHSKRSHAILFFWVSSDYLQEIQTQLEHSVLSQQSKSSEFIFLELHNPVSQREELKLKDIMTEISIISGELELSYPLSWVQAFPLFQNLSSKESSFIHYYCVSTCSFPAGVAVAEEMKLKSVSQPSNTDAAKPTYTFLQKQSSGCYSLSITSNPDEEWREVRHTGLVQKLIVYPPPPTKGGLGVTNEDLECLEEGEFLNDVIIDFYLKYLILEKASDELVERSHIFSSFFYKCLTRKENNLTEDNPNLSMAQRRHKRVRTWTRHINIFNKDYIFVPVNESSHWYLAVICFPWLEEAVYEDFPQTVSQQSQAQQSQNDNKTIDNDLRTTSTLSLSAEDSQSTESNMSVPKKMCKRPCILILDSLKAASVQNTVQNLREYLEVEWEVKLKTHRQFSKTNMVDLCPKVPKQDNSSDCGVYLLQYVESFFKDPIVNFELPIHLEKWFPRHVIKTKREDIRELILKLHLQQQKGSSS

[6] = target: T4, Sentrin-specific protease 6 (Homo sapiens, UniProt Q9GZR1); assay: SAR Analysis of small molecule inhibitors of Sentrin-specific protease 6 (SENP6) using a Luminescent assay. [Related pubchem assays (depositor defined):AID2582, AID2599]; type: functional
T4 sequence (Q9GZR1 whole entry): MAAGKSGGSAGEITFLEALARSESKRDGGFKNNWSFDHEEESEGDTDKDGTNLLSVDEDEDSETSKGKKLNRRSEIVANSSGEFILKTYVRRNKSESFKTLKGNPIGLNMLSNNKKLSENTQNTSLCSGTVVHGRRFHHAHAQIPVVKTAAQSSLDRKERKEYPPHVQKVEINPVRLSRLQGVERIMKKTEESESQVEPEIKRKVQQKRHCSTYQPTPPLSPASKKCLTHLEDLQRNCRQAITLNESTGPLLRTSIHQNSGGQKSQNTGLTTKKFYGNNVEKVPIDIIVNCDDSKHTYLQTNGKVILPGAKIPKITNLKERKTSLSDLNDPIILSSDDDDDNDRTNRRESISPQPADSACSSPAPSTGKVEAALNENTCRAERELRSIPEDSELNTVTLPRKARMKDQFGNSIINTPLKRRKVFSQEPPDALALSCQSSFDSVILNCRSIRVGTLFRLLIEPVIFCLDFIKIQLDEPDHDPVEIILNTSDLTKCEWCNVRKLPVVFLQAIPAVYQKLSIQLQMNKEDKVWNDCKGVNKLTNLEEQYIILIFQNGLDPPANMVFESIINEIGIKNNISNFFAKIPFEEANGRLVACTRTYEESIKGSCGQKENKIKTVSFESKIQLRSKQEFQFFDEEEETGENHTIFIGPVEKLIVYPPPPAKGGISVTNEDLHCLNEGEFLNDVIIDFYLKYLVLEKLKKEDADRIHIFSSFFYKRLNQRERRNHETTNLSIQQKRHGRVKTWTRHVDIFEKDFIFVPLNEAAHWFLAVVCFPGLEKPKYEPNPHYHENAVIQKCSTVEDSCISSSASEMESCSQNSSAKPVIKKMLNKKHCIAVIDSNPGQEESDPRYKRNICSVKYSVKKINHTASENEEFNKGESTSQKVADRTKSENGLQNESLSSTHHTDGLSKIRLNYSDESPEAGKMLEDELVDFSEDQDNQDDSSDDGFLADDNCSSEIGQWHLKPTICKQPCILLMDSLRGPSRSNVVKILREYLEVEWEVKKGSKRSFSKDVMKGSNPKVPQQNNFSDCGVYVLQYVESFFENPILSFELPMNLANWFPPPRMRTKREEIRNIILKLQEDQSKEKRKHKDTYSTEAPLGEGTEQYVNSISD

[7] = target: T4, Sentrin-specific protease 6; assay: inhibition of human SENP6 catalytic domain – biochemical, luminescence, set 2, SAR follow-up (AID 588598); type: functional
[8] = target: T3, Sentrin-specific protease 7; assay: inhibition of human SENP7 cleavage activity – biochemical, luminescence, SAR follow-up (AID 504497); type: functional
[9] = NIH-3T3 fibroblast cytotoxicity, dose response, cytotoxicity control, cell-based, fluorescence, Alamar Blue, secondary assay (AID 2327); type: functional;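 note: NIH-3T3 mouse fibroblasts cultured with fluconazole at 8 µg/mL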
BJ [10] = assay: BJ-TERT fibroblast viability loss – cell-based, RAS-independent, luminescence, dose response (AID 1933); type: functional; settings: Homo sapiens
cells [11] = type: functional, cell-based
BJ [12] = assay: cells; type: functional, cell-based; settings: Homo sapiens
[13] = fluconazole-exposed Candida albicans growth modulators – fluorescence, retest, confirmation (AID 2467); type: functional, cell-based
[14] = Luminescence-based counterscreen assay for KLF5 inhibitors: dose response cell-based high throughput screening assay to identify cytotoxic compounds using the IEC-6 intestinal epithelial cell line. [Related pubchem assays: 1700 (Primary screen.), 1834 (Confirmation screen.), 1858 (Summary AID.), 1905 (Counterscreen.)]; type: functional
[15] = Trypanosoma cruzi growth suppression in host cells – NIH3T3 host cells, beta-gal luminescence, confirmation (AID 2044); type: functional, cell-based;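 note: intracellular parasites grown in NIH/3T3 mouse fibroblasts as host cells; luminescent beta-galactosidase reporter signal from transgenic T. cruzi replicating inside host cells; inhibitors lower the luminescence signal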
cells [16] = type: functional, cell-based; remark: listed apart in the source
[17] = target: T5, Serine/threonine-protein phosphatase (Candida dubliniensis (strain CD36 / CBS 7987 / NCPF 3949 / NRRLY-17841) (Yeast), UniProt B9W6M3); assay: blockers of CaCl2-induced CDRE-lacZ signaling – S. cerevisiae, luminescence, secondary, dose response (AID 2388); type: functional, cell-based;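 note: yeast reporter cells carrying a calcineurin-responsive lacZ construct stimulated with calcium chloride; luminescent beta-galactosidase reporter signal in whole cells rather than isolated phosphatase activity; potency for inhibition where a drop in reporter signal means calcineurin blockade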
T5 sequence (B9W6M3 whole entry): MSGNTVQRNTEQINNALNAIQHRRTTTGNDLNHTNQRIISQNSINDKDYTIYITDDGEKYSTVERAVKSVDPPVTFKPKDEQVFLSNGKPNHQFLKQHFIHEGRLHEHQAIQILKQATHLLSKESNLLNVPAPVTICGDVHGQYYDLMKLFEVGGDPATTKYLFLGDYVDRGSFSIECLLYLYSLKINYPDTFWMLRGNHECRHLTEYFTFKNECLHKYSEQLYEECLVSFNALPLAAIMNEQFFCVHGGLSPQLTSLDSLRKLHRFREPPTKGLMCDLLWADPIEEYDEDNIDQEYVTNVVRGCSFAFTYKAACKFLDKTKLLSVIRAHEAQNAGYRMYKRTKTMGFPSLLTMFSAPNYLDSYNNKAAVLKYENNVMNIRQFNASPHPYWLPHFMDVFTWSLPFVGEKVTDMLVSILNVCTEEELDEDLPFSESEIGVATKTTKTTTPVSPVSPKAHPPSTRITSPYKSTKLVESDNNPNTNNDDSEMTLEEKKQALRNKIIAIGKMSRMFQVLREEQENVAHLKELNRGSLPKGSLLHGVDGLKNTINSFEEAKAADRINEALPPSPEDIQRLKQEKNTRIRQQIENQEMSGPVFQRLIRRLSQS

[18] = NIH3T3 cell viability loss – ATP luminescence, mouse fibroblasts, counter-screen, dose response (AID 2010); type: functional, cell-based;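 note: cells exposed to compound for about 90 hours before reading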
BJ [19] = assay: BJ-TERT-LT-ST fibroblast viability loss – cell-based, RAS-independent, luminescence, dose response (AID 1935); type: functional; settings: Homo sapiens;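 note: BJ fibroblasts immortalized with TERT plus LT and ST oncogenes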
[20] = DRD fibroblast viability loss – cell-based, non-viral oncogenic, luminescence, dose response (AID 1934); type: functional; settings: Homo sapiens
HEK293 = assay: EBV LMP1 TES2 canonical NF-kB signalling blockers – cell-based, HEK293, luciferase, cherry-pick, dose response (AID 588343); type: functional; settings: Homo sapiens
[21] = target: Latent membrane protein 1 (Human herpesvirus 4 (strain B95-8), UniProt P03230); assay: LMP1 TES1 pathway selectivity over dsRED control – imaging, HEK293T, dual-color eGFP/dsRED, cherry-picks, selectivity assay for LMP1 NF-kB inhibitor project, dose response (AID 588398); type: functional, cell-based
[22] = target: ATP-dependent molecular chaperone HSP82 (Candida albicans (strain WO-1) (Yeast), UniProt C4YTQ8); assay: steroid-induced GRE reporter decrease in yeast – S. cerevisiae, luminescence, Hsp90 inhibitor project, dose response (AID 2400); type: functional, cell-based;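 note: beta-galactosidase luminescence from glucocorticoid response element reporter as proxy for Hsp90 function; inhibitor potency where signal loss means Hsp90 inhibition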
[23] = target: Lysine-specific demethylase 4C (Homo sapiens, UniProt Q9H3R0); assay: inhibition of JMJD2C H3K9me3 demethylation – biochemical, DELFIA europium, cherry-picked samples, dose response (AID 488835); type: functional
[24] = target: Apoptotic protease-activating factor 1 (Homo sapiens, UniProt O14727); type: functional
Apoptotic protease-activating factor 1, sequence (O14727 whole entry): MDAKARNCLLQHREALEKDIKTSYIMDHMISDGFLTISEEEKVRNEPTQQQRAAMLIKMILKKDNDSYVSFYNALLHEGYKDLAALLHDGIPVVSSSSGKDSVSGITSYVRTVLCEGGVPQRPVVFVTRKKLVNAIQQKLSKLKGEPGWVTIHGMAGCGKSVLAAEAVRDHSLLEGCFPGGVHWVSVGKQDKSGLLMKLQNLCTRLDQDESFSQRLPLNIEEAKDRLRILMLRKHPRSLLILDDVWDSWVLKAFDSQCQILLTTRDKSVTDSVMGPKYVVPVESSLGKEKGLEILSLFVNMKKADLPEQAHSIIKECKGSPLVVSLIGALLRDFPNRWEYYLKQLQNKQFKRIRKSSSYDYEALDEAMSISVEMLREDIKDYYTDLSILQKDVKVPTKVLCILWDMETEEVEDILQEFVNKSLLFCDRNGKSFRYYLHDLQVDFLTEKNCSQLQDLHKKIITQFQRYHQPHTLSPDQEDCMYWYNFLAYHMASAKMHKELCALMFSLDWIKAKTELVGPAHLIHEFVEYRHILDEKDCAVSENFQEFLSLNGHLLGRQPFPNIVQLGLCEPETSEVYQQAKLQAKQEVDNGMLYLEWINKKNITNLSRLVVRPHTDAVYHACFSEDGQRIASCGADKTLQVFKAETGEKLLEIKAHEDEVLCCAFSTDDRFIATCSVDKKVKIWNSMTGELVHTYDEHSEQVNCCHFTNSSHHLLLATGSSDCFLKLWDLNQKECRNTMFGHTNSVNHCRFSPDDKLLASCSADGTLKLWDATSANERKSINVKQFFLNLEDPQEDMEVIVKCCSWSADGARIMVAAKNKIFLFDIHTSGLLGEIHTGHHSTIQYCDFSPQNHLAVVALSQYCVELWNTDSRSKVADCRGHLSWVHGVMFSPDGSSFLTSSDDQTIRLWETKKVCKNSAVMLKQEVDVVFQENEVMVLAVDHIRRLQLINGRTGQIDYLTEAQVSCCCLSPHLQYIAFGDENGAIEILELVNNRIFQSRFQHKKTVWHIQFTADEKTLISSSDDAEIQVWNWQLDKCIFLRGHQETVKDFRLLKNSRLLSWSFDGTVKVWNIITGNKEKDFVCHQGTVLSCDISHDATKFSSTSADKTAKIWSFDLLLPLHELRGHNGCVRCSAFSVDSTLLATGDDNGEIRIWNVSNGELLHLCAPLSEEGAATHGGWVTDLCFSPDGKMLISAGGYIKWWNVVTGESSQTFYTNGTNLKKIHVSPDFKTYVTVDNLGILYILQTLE

ATP-dependent molecular chaperone HSP82, sequence (C4YTQ8 whole entry): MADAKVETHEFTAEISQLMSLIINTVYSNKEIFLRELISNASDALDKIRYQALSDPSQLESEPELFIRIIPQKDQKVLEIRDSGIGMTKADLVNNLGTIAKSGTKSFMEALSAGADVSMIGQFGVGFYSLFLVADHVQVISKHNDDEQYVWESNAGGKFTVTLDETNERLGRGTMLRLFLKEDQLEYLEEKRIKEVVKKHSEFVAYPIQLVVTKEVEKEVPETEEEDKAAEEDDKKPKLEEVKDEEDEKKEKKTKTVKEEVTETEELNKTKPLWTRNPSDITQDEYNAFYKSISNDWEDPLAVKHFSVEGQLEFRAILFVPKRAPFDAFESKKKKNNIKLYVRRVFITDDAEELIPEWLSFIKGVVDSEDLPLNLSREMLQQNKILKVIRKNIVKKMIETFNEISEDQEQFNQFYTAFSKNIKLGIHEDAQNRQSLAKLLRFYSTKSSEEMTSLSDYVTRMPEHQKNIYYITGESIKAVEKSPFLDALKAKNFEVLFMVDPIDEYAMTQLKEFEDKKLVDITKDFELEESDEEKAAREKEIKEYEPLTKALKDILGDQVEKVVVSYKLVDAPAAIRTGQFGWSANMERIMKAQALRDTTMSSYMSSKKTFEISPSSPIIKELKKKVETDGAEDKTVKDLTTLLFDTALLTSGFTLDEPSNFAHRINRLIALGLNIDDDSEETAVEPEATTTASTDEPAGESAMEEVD
Lysine-specific demethylase 4C, sequence (Q9H3R0 whole entry): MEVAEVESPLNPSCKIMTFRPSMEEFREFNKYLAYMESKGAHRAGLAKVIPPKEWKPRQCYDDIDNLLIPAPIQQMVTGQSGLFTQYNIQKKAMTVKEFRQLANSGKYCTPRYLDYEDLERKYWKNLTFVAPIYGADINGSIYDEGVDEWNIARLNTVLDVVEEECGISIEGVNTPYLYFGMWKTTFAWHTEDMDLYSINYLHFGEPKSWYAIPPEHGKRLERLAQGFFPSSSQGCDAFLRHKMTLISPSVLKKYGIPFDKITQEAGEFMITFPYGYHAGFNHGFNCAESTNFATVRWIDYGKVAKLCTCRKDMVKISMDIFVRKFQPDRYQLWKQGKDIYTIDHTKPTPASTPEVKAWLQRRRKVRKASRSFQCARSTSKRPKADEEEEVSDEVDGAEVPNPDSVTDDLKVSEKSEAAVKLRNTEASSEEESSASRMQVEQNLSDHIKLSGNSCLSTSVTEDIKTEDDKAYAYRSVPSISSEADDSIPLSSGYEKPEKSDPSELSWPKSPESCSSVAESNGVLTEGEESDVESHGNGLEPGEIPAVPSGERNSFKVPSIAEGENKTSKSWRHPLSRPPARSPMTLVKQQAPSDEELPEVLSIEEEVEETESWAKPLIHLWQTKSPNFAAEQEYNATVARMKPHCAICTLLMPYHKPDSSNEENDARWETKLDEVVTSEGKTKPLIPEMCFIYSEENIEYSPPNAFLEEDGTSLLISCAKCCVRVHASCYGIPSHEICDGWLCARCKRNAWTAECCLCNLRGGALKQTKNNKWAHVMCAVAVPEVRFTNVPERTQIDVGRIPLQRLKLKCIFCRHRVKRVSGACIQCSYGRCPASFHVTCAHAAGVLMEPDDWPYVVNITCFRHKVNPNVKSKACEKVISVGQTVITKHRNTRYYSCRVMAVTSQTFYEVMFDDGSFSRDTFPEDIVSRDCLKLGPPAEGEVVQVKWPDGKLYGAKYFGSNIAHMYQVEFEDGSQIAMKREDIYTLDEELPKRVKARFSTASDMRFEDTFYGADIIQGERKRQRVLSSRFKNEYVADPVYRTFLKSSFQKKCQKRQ
Latent membrane protein 1, sequence (P03230 whole entry): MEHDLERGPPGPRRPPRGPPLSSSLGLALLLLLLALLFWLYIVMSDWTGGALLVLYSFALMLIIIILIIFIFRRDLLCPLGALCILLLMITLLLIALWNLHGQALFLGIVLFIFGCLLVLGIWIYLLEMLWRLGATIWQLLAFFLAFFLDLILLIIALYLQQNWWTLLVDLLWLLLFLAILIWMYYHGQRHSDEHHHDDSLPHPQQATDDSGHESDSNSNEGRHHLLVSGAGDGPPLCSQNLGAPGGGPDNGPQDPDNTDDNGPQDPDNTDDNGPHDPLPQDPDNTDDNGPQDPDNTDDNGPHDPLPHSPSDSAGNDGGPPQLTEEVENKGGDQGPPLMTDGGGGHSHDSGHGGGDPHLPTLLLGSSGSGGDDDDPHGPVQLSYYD

IC50 (Caspase-3 [2]): 4.01 µM (active) | IC50 (Caspase-3 [4]): 4.4 µM (active) | IC50 [5]: 2.22 µM (active) | IC50 [6]: 1.9 µM (active) | IC50 [7]: 2.04 µM (active) | IC50 [8]: 1.5 µM (active)
Compound: CCCCc1ccc2nc(NC(=O)c3cccs3)sc2c1
IC50 [1]: 2.1 µM (active) | IC50 [3]: 2.07 µM (active)

Compound: Cc1ccc(C(=O)N/N=C/c2c(O)ccc3ccccc23)cn1
EC50 [9]: > 150 µM (inactive) | EC50 (BJ [10]): 1 µM (active) | EC50 (cells [11]): 6.93 µM (active) | EC50 (BJ [12]): 10.4 µM (inconclusive) | EC50 [13]: 0.803 µM (active) | IC50 [14]: 3.96 µM (active) | EC50 [15]: 1.59 µM (active) | EC50 (cells [16]): > 350 µM (not active) | EC50 [17]: > 180 µM (inactive) | EC50 [18]: 10.9 µM (active) | EC50 (BJ [19]): 13.1 µM (active) | EC50 [20]: 2.72 µM (active) | AC50 (HEK293): 5.41 µM (active) | AC50 [21]: 9.88 µM (active) | EC50 [22]: > 150 µM (inactive)

AC50 [23]: 8.88 µM (active) | IC50 [24]: 20 µM (active)
Compound: Oc1cc(N/N=C/c2ccccc2)nc(O)n1
